Data as given in PMC10923054, “Antiplasmodial peptaibols act through membrane directed mechanisms” (Cell Chemical Biology, 2024).
Square brackets hold non-standard residues; d marks the D form. Peptide text beside a SMILES is read from it. Phe(ol) = N[C@H](CO)Cc1ccccc1; Leu(ol) = CC(C)C[C@H](N)CO; dIva = CC[C@@](C)(N)C(=O)O; Aib = CC(C)(N)C(=O)O

Assays:
[1] = test system: Dd2 strain parasites, digestive vacuole; assay: Transmission electron microscopy of treated parasites; note: key: -: A '–' indicates a negative finding; a single '+' indicates a positive finding; a double '++' indicates a strong positive finding; format: cell-based, P. falciparum; conditions: Figure 7A summary
Protocol: For TEM imaging, samples were prepared as previously described.[67] […] Culture was collected by centrifugation and washed with PBS, pH 7.4. Samples were then fixed in 2% paraformaldehyde, 2.5% glutaraldehyde, in a 0.1 M sodium cacodylate buffer, pH of 7.4, (Electron Microscopy Sciences, Hatfield, PA) and incubated for 2 h at room temp with mild shaking. After fixation, samples were pelleted and stored cold but not frozen in 0.2 M sodium cacodylate buffer prior to staining and embedment in Eponate 12 resin (Ted Pella Inc.). Images were taken using a JEOL 1200 EX transmission electron microscope (JEOL USA Inc., Peabody MA) and processed in AMT Image Capture Engine V602 software (Advanced Microscopy Techniques, Woburn, MA.).

[2] = Electrophysiology: reconstitution into planar lipid bilayers; conditions: for channel activity in planar lipid bilayers: 1 μM peptaibol, DPhPc bilayers, pH 7.0 saline; for Channel Induction: Figure 7A summary; for Channel Induction: key: -: A '–' indicates a negative finding; a single '+' indicates a positive finding; a double '++' indicates a strong positive finding
Protocol: Ion channel formation by peptaibols was evaluated with reconstitution into planar lipid bilayers using the Orbit Mini workstation (Nanion). Bilayers were formed from a 5 mg/ml decane solution of 1,2-diphytanoyl-sn-glycero-3-phosphocholine (DPhPc, Avanti Polar Lipids) across 100 μm diameter orifices in the MECA 4 recording chip with 4 microcavities. The bilayers were bathed with saline (in mM: 70 NaCl, 70 KCl, 2.5 MgCl2, 2 CaCl2, 10 HEPES, 10 MES, 10 glucose, pH 7.0) at both faces, with resistances of up to 500 GΩ before channel incorporation. Peptaibols were added from a 10 mM DMSO stock to the cis chamber at a final 1 μM concentration; spontaneous incorporation into the bilayer typically occurred within 10–15 min. Recordings were acquired at 20 kHz and filtered at 1.25 kHz.

[3] = test system: synchronized Dd2 parasites; assay: Synchronous stage specificity assay (SSA); format: cell-based, P. falciparum; conditions: for stage of parasite arrest when added at 6 HPI: 5 x EC50 (TC HA-II 3 x EC50), Giemsa and YOYO-1 flow cytometry; for Stage of Inhibition: Figure 7A summary
Protocol: SSA was performed in triplicate as previously described.[64] In summary, Dd2 culture was synchronized by combination of MACS column[65] and sorbitol treatment,[66] and cultured at 1% parasitemia, 2% hematocrit, for 54 h. Compound was added at approximately 6, 18, 30, or 42 HPI, and samples were taken every 12 h after treatment times for Giemsa staining and flow cytometric analysis. HZ NPDG-H and HZ NPDG-I were tested at 5 x EC50, TC HA-II tested at 3 x EC50 due to its higher hemolytic potential. All test values above EC90. Flow samples were fixed in 4% paraformaldehyde, incubated for 30 min at 37°C, then washed 3 times in PBS. Fixed samples were stored at 4°C prior to staining, then resuspended in 0.25% Trition X-100 and incubated for 10 min with shaking. Permeabilized samples were centrifuged and resuspended in a 50 μg/mL RNase solution, and incubated for 3 h at 37°C. After centrifugation, samples were resuspended in a YOYO-1 solution (500 nM final concentration) and read on a CytoFLEX S (Beckman Coulter, Brea, CA) at 488 nm excitation, with 100,000–500,000 events recorded per sample. Infected RBCs were gated using an uninfected RBC control in FlowJo version 10. After gating populations, FITC channel values were extracted from FlowJo and the sum total fluorescence of the iRBCs and the median fluorescence for each timepoint were graphed in Graph Pad Prism Version 9. Assay workflow outline was created using BioRender.

asynchronous Dd2 culture = assay: Killing profile (flow cytometry, SYBR Green I / Mitotracker Deep Red FM); format: cell-based, P. falciparum; conditions: for Killing Profile: 10 x EC50
Protocol: Killing profile analyses were performed as previously described,[64] in asynchronous Dd2 culture, starting at approximately 1% parasitemia, 4% hematocrit. Compound was added to culture in majority ring stage and incubated for 12, 24, or 48 h prior to washing and sample collection. Media were then changed normally every 24 h for 6 days. Samples taken each day were used for Giemsa thin smears, and flow cytometric analysis to monitor parasitemia and mitotracker retention. For staining, samples were incubated in a solution of 1:1000 SYBR Green I and 0.6 μM Mitotracker Deep red FM for 30 min then read on a CytoFLEX S (Beckman Coulter, Brea, CA), with 100,000 events recorded per sample. Flow cytometry was gated in FlowJo Version 10 using DHA, vehicle, no Mitotracker, and uninfected RBC controls. Assay workflow outline was created using BioRender.

P. falciparum 3D7 = assay: Phenotypic screen: asexual blood stage EC50 determination (SYBR Green I); format: cell-based; conditions: CQ sensitive line, asynchronous culture, 72 h, mean ± SEM, biological triplicate
Protocol: Asexual blood stage parasites grown in the Chakrabarti laboratory were cultured based on a protocol by Trager and Jensen[57] with some modifications.[35] Culture was maintained at 4% hematocrit with human A+ whole blood obtained from the Florida OneBlood, in RPMI 1640 supplemented with 25 mM HEPES pH 7.4, 26 mM NaHCO3, 2% dextrose, 15 mg/L hypoxanthine, 25 mg/L gentamycin, and 0.5% Albumax II. Incubator conditions remained at 37°C and 5% CO2, 5% O2, 90% N2, or 95% air. For comparison screening using serum vs Albumax II, culture media was changed from RPMI with 0.5% Albumax II to RPMI with 10% human serum and maintained for a minimum of 2 weeks prior to assay use.
Inhibitor EC50 determination in 3D7 and Dd2 was performed as discussed in,[35] based on established protocols.[60] Assays utilized asynchronous culture at 1% parasitemia, 1% hematocrit. Culture was incubated with compound dilutions for 72 h followed by freezing at −80°C to promote lysis, then thawing and incubation for 45 min–1 h with 1× SYBR Green I in a lysis buffer (20 mM Tris-HCL, 0.08% saponin, 5 mM EDTA, and 0.8% Triton X-100). Fluorescence was read 485 nm excitation, 530 nm emission on a Synergy Neo2 multimode reader (BioTek Winsooki, VT) and EC50 curves were generated using CDD Vault (https://www.collaborativedrug.com/).

[4] = 10 x EC50, monitored for 6 days, 3 biological replicates

| Structure (SMILES) | DV Abnormalities [1] | channel activity in planar lipid bilayers [2] | Channel Induction [2] | stage of parasite arrest when added at 6 HPI [3] | Stage of Inhibition [3] | Killing Profile (asynchronous Dd2 culture) | parasitemia after 12 h incubation and washout (asynchronous Dd2 culture; [4]) | parasitemia after 48 h incubation and washout (asynchronous Dd2 culture; [4]) | Killing Profile (asynchronous Dd2 culture; listed as Harzianin NPDG H) | EC50 (P. falciparum 3D7) [nM] |
| --- | --- | --- | --- | --- | --- | --- | --- | --- | --- | --- |
| CC[C@H](C)[C@H](NC(=O)[C@H](C)NC(=O)[C@@H]1CCCN1C(=O)C(C)(C)NC(=O)[C@H](CC(C)C)NC(=O)[C@H](CCC(N)=O)NC(=O)[C@@](C)(CC)NC(C)=O)C(=O)NC(C)(C)C(=O)N1CCC[C@H]1C(=O)N[C@](C)(CC)C(=O)N[C@@H](CC(C)C)C(=O)NC(C)(C)C(=O)N1CCC[C@H]1C(=O)N[C@H](CO)CC(C)C [HZ NPDG-H, harzianin NPDG H] (Ac-[dIva]QL[Aib]PAI[Aib]P[dIva]L[Aib]P[Leu(ol)]) | + | did not induce detectable channel activity | - | late trophozoite to early schizont stage | Schizont | cytostatic | recovered by day 3 | increase in parasitemia at day 5 | Slow | 120 ± 10 |
| CC(=O)NC(C)(C)C(=O)N1CCC[C@H]1C(=O)NC(C)(C)C(=O)N[C@@H](C)C(=O)NC(C)(C)C(=O)N[C@@H](C)C(=O)N[C@@H](CCC(N)=O)C(=O)NC(C)(C)C(=O)N[C@H](C(=O)NC(C)(C)C(=O)NCC(=O)N[C@@H](CC(C)C)C(=O)NC(C)(C)C(=O)N1CCC[C@H]1C(=O)N[C@H](C(=O)NC(C)(C)C(=O)NC(C)(C)C(=O)N[C@@H](CCC(=O)O)C(=O)N[C@@H](CCC(N)=O)C(=O)N[C@H](CO)Cc1ccccc1)C(C)C)C(C)C [Alamethicin, reference compound] (Ac-[Aib]P[Aib]A[Aib]AQ[Aib]V[Aib]GL[Aib]PV[Aib][Aib]EQ[Phe(ol)]; N-terminus assumed) |  |  |  |  |  |  |  |  |  | 540 ± 30 |
| CC[C@@](C)(NC(=O)C(C)(C)NC(=O)[C@H](CC(C)C)NC(=O)[C@@H]1CCCN1C(=O)C(C)(C)NC(=O)[C@H](CC(C)C)NC(=O)CNC(=O)C(C)(C)NC(=O)[C@@H](NC(=O)C(C)(C)NC(=O)[C@H](CCC(N)=O)NC(=O)C(C)(C)NC(=O)C(C)(C)NC(=O)[C@H](C)NC(=O)CNC(=O)C(C)(C)NC(C)=O)C(C)C)C(=O)N[C@@H](CCC(N)=O)C(=O)N[C@H](CO)CC(C)C [TC HA-II, trichorzin HA II] (Ac-[Aib]GA[Aib][Aib]Q[Aib]V[Aib]GL[Aib]PL[Aib][dIva]Q[Leu(ol)]) | + | did not reveal channel activity | - | early arrest with a condensed permatroph morphology | Ring | Rapid | inhibit parasitemia for all 6 days |  |  | 390 ± 90 |
| CC[C@H](C)[C@H](NC(=O)[C@H](CC(C)C)NC(=O)[C@H](CCC(N)=O)NC(=O)[C@@](C)(CC)NC(C)=O)C(=O)NC(C)(C)C(=O)N1CCC[C@H]1C(=O)N[C@](C)(CC)C(=O)N[C@@H](CC(C)C)C(=O)NC(C)(C)C(=O)N1CCC[C@H]1C(=O)N[C@H](CO)CC(C)C [HZ NPDG-I, harzianin NPDG I] (Ac-[dIva]QLI[Aib]P[dIva]L[Aib]P[Leu(ol)]) | + | reproducibly induced unambiguous channel-like activity | + | arrest parasite development in early ring | Ring | Rapid | inhibit parasitemia for all 6 days |  |  | 120 ± 10 |
